Experimental data reported in patent publication US20220288058A1, “COMBINATION THERAPY USING A MALT1 INHIBITOR AND A BTK INHIBITOR” (Janssen Pharmaceutica NV, priority 2021, published 2022).
Entries after “also recorded” stand apart in the source; their conditions may differ.

What was measured:
TMD8 = assay: Inhibition of DLBCL cancer cell proliferation (CellTiter-Glo), Compound A and Compound B mono and combination; type: cell-based; conditions: monotherapy, highest concentration tested, 4 days
Experimental: (§1) Compound A and Compound B were used throughout the in vitro and cellular assessment of activity. All small molecules were prepared as 100% dimethyl sulfoxide (DMSO) stocks as indicated. A final concentration of 0.25% DMSO was used as a control. High Control=Cells+DMSO 0.25%.
(§2) A panel of 4 B-cell lymphoma lines was treated with different doses of both compounds. The following ABC-DLBCL cell lines were tested: OCI-Ly10; TMD8; OCI-Ly3; and HBL1. The cell lines were grown in 96-well plates and treated with a matrix of seven scalar concentrations of Compound A ([…]) and six scalar concentrations of Compound B ([…]) and all combinations thereof. This checkerboard design was repeated on up to four separate plates. The final concentration of DMSO was 0.25%. After an incubation of four days at 37° C. and 5% CO2, cell viability was determined by adding CellTiter-Glo®. Luminescence was read on an Envision device and readouts were used to calculate potential combination effects.
(§3) For the assessment of combination effects on DLBCL or MCL cancer cell proliferation, the observed combination effects were evaluated using the public available BIGL (Biochemically Intuitive Generalized Loewe Model) R package which measures the evidence in the data, in the presence of variability, against certain null models derived from the monotherapies. In first step, monotherapies were fitted with 4PL models with extra constraint of common baseline between two agents. When no activity was observed, a straight line was fitted through the monotherapy data. In a second step, hypothesis tests at 5% significance level were performed which basically contrast the observed readouts of the combination experiments with those predicted from the null model derived from the monotherapies where both HSA (Highest Single Agent) 17 and generalized Loewe18 were assessed for these studies.

OCI-Ly3 = assay: as above; type: cell-based; conditions: monotherapy, highest concentration tested, 4 days
Experimental: as §1, §2, §3

[1] = Body weight and tolerability monitoring of OCI-LY10 tumor bearing NSG mice (Studies 2-4); type: in vivo
Experimental: Subsequently animal body weight and tumor volume was monitored two to three times per week. Animals were monitored daily for clinical signs related to either compound toxicity or tumor burden (i.e., hind limb paralysis, lethargy, dyspnea, etc.).
Body weight changes of individual mice were calculated using the formula: ([W−W0]/W0)×100, where “W” represents mean body weight on a particular day, and “W0” represents body weight at initiation of treatment. Body weight was graphed as mean body weight change±SEM.

OCI-Ly10 = assay: Inhibition of DLBCL cancer cell proliferation (CellTiter-Glo), Compound A and Compound B mono and combination; type: cell-based, human; conditions: monotherapy, highest concentration tested, 4 days
Experimental: as §1, §2
For the assessment of combination effects on DLBCL or MCL cancer cell proliferation, the observed combination effects were evaluated using the public available BIGL (Biochemically Intuitive Generalized Loewe Model) R package which measures the evidence in the data, in the presence of variability, against certain null models derived from the monotherapies. […]

MAVER-1 = assay: Inhibition of MCL cancer cell proliferation (CellTiter-Glo), Compound A and Compound B mono and combination; type: cell-based; conditions: monotherapy, 4 days
Experimental: as §1, §2
(§4) A panel of 4 MCL cell lines were treated with different doses for both compounds (using the same dosing as above). The following MCL cell lines were tested: REC-1; JEKO-1; MINO; and MAVER-1.
as §3

MINO = assay: as above; type: cell-based; conditions: monotherapy, 4 days
Experimental: as §1, §2, §4, §3

JEKO-1 = assay: as above; type: cell-based; conditions: monotherapy, 4 days
Experimental: as §1, §2, §4, §3

[2] = system: NF-κB-driven cytokines: interleukin (IL)10, tumor necrosis factor α (TNF α), and IL 12p70; assay: Serum cytokine secretion in LY2298 tumor bearing mice; type: in vivo, mouse; conditions: 1 day posttreatment, compared with vehicle
Experimental: Cytokine secretion from serum samples of LY2298 tumor bearing mice was measured following Compound A and Compound B treatment.

BTK protein = target: T1, BTK protein (Homo sapiens, UniProt Q06187); assay: Study 1: BTK occupancy assay (ELISA) in OCI-LY10 DLBCL tumor lysates of NSG mice; type: in vivo, mouse
T1 construct: measuring the amount of free BTK protein in OCI-LY10 DLBCL tumor lysates of mice treated with various dosing concentrations of Compound B; endogenous in cells; host or cells: OCI-LY10 ABC-DLBCL xenograft tumours grown SC in female NSG mice (tumour lysates)
Experimental: In Study 1, 5×10^6 OCI-LY10 cells in PBS containing 50% Matrigel™ were injected subcutaneously (SC) into the right hind flank of female NSG mice. Tumor growth was measured over time and once tumors reached volumes of approximately 525 mm^3, mice were randomized in groups of 15 and treated orally with a single dose of Compound B according to treatment schedule (see Table 4). Blood was collected serially by mandibular vein sampling from 5 animals per time point per group to determine circulating compound concentration and IL10 levels at 2, 4, 8, 12, 16, and 24 hours post single dose. Blood was harvested in EDTA and plasma was obtained via centrifugation at 3000 rpm for 10 minutes. In addition, tumor samples were harvested from 5 animals per timepoint per treatment group for BTK occupancy studies at 4, 12, and 24 hours post single dose.
Compound B is a covalent orally bioavailable inhibitor binding BTK irreversibly, allowing us to evaluate the duration of signaling shutdown and occupancy of BTK protein after compound administration considering compound binding to BTK as well as synthesis rate of new BTK protein. Target engagement was determined by measuring the amount of free BTK protein in OCI-LY10 DLBCL tumor lysates of mice treated with various dosing concentrations of Compound B using a BTK occupancy assay (ELISA assay format). A covalent BTK inhibitor probe, chemically linked to biotin (CNX-500 Probe), was incubated in PBS/BT (PBS+1% BSA+0.05% tween-20) with tumor lysate for 1 hour at 28° C. Incubated BTK standards and samples were transferred to a streptavidin-coated 96-well plates and mixed while shaking for 30 minutes at RT. The BTK-antibody was then added and incubated overnight at 4° C. After washing, goat anti-mouse-HRP was added and incubated for 1 hour at RT. The ELISA was developed with addition of tetramethyl benzidine (TMB) followed by sulfuric acid (stop solution) and read at optical density 450 nm on Envision device.

T1 sequence (Q06187 whole entry): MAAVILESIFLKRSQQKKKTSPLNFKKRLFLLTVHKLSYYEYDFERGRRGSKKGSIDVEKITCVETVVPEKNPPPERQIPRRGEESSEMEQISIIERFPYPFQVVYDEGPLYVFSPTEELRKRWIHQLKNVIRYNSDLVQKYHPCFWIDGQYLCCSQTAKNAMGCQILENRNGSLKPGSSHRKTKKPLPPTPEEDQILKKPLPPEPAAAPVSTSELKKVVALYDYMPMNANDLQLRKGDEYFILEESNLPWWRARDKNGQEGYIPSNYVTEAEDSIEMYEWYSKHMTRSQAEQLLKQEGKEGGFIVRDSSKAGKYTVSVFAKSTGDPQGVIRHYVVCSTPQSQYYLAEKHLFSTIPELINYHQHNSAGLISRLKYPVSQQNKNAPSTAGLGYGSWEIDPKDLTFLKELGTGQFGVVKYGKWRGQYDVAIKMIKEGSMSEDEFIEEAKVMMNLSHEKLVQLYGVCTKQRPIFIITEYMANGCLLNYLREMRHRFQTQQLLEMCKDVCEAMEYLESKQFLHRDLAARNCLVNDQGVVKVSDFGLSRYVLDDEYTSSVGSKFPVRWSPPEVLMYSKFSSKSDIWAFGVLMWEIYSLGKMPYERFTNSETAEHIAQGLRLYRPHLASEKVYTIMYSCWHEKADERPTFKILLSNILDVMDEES

C=CC(=O)N[C@H]1CCC[C@H]1NC(=O)c1sc2nccc3c2c1NC(=O)N3c1cnc(CC(C)C)cc1C (atropisomer, axis not shown) [Compound B, N-((1R,2S)-2-acrylamidocyclopentyl)-5-(S)-(6-isobutyl-4-methylpyridin-3-yl)-4-oxo-4,5-dihydro-3H-1-thia-3,5,8-triazaacenaphthylene-2-carboxamide]
proliferation inhibition (TMD8): up to 80% | proliferation inhibition (OCI-Ly3): did not inhibit proliferation | body weight ([1]; Study 2, 3 weeks of treatment): no body weight loss was observed | animals found dead or taken off study due to negative clinical signs ([1]; Study 3, Compound B 30 mg/kg QD): one animal | body weight loss during the 3 weeks of treatment ([1]; Study 3 and Study 4, similar frequencies in vehicle group): low level, transient body weight loss; also recorded: low level, transient, body weight loss | animals removed due to reaching the maximum allowed body weight loss of 20% ([1]; Study 4, Compound B 15 mg/kg): one each | animals died during the study ([1]; Study 4, Compound B 50 mg/kg): one animal | tolerability in NSG mice ([1]; all dose levels tested, up to 50 mg/kg BID or 100 mg/kg QD): well tolerated | proliferation inhibition (OCI-Ly10): up to 75% | proliferation inhibition (MAVER-1): no to minor inhibition of proliferation | proliferation inhibition (MINO): ~30% | proliferation inhibition (JEKO-1): ~25% | serum secretion of IL 12p70 [2]: significantly downregulated | serum secretion of interleukin (IL)10 [2]: significantly downregulated | serum secretion of tumor necrosis factor α (TNF α) [2]: significantly downregulated | BTK occupancy in tumor lysates (BTK protein; 1 mg/kg single dose): No BTK occupancy | BTK occupancy in tumor lysates (BTK protein; 3 mg/kg single dose): No BTK occupancy | decrease in unoccupied (free) BTK in tumors (BTK protein; Compound B at 1, 3, 10, 30, or 100 mg/kg single dose, maximal at ≥ 30 mg/kg, sustained through 24 hours): Dose-and time-dependent | receptor occupancy at 10 mg/kg (BTK protein; OCI-Ly10, 4 hours after dosing): 54% | receptor occupancy at 30 mg/kg (BTK protein; OCI-Ly10, 4 hours after dosing): 90% | receptor occupancy at 100 mg/kg (BTK protein; OCI-Ly10, 4 hours after dosing): 95% | receptor occupancy at 10 mg/kg (BTK protein; OCI-Ly10, 12 hours): 71% | receptor occupancy at 30 mg/kg (BTK protein; OCI-Ly10, 12 hours): 94% | receptor occupancy at 100 mg/kg (BTK protein; OCI-Ly10, 12 hours): 96% | receptor occupancy at 10 mg/kg (BTK protein; OCI-Ly10, 24 hours): 70% | receptor occupancy at 30 mg/kg (BTK protein; OCI-Ly10, 24 hours): 91% | receptor occupancy at 100 mg/kg (BTK protein; OCI-Ly10, 24 hours): 85% | BTK occupancy in tumors (BTK protein; single dose as low as 30 mg/kg, effects lasting up to 24 hours): complete BTK occupancy
